Assay results from ChEMBL document CHEMBL1201862, “PubChem BioAssay data set” (2004).
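Test compounds were applied to cells in 96-well plates for 48 hours at 5 doses. Abbreviation: GI50, concentration required for 50% inhibition of growth.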 Activity calls are given as the source filed them. Rule as the data show it: active = GI50 up to about 1.1 µM and inactive = higher. Where a SMILES comes first, the peptide text is derived from it. The star is where a group is joined. Boc = CC(C)(C)OC(=O)*

How the values were obtained:
Experiment in all cases: inhibition of tumour cell growth, NCI panel, 48 h
786-0 = test system: 786-0
BT-549 = test system: BT-549
COLO 205 = test system: COLO 205
DU-145 = test system: DU-145
HCC 2998 = test system: HCC 2998
HCT-15 = test system: HCT-15
HOP-62 = test system: HOP-62
HOP-92 = test system: HOP-92
Hs-578T = test system: Hs-578T
MDA-MB-435 = test system: MDA-MB-435
NCI-H226 = test system: NCI-H226
OVCAR-4 = test system: OVCAR-4
PC-3 = test system: PC-3
RPMI-8226 = test system: RPMI-8226
SF-268 = test system: SF-268
SNB-75 = test system: SNB-75
SW-620 = test system: SW-620
TK-10 = test system: TK-10
UACC-257 = test system: UACC-257

Compound | GI50 (786-0) | GI50 (BT-549) | GI50 (COLO 205) | GI50 (DU-145) | GI50 (HCC 2998) | GI50 (HCT-15) [µM] | GI50 (HOP-62) | GI50 (HOP-92) | GI50 (Hs-578T) | GI50 (MDA-MB-435) | GI50 (NCI-H226) | GI50 (OVCAR-4) | GI50 (PC-3) | GI50 (RPMI-8226) | GI50 (SF-268) | GI50 (SNB-75) | GI50 (SW-620) | GI50 (TK-10) | GI50 (UACC-257)
CC1SCCc2nc3ccccc3n21 (stereo unspecified) | > 100 µM (inactive) | > 100 µM (inactive) | > 100 µM (inactive) | > 100 µM (inactive) | > 100 µM (inactive) | > 100 | > 100 µM (inactive) | > 100 µM (inactive) | > 100 µM (inactive) | > 100 µM (inactive) | > 100 µM (inactive) | > 100 µM (inactive) | > 100 µM (inactive) | > 100 µM (inactive) | > 100 µM (inactive) | > 100 µM (inactive) | > 100 µM (inactive) | > 100 µM (inactive) | > 100 µM (inactive)
Cc1cccc(Nc2nc(NNC(=O)Cc3ccccc3)nc(NNC(=O)c3ccncc3)n2)c1 | > 10 µM (inactive) | > 10 µM (inactive) | > 10 µM (inactive) | > 10 µM (inactive) | > 10 µM (inactive) | > 10 | > 10 µM (inactive) | > 10 µM (inactive) | > 10 µM (inactive) | > 10 µM (inactive) | > 10 µM (inactive) | > 10 µM (inactive) | > 10 µM (inactive) | > 10 µM (inactive) | > 10 µM (inactive) | > 10 µM (inactive) | > 10 µM (inactive) | > 10 µM (inactive) | > 10 µM (inactive)
N#Cc1c(N2CCN(c3ccc([N+](=O)[O-])cc3)CC2)[n+]([O-])c2ccc(Cl)cc2[n+]1[O-] | 0.718 µM (active) | 0.264 µM (active) | 3.24 µM (inactive) | 2.16 µM (inactive) | 0.944 µM (active) | 0.627 | 0.521 µM (active) | 0.161 µM (active) | 2.11 µM (inactive) | 1.8 µM (inactive) | 2.29 µM (inactive) | 1.18 µM (inactive) | 0.836 µM (active) | 0.705 µM (active) | 1.86 µM (inactive) | 2.36 µM (inactive) | 0.646 µM (active) | 2.54 µM (inactive) | 2.65 µM (inactive)
Cc1ccc(S(=O)(=O)c2ccc([N+](=O)[O-])o2)cc1 | 1.67 µM (inactive) | 2.51 µM (inactive) | 0.916 µM (active) | 3.66 µM (inactive) | 4.83 µM (inactive) | 1.17 | 17.7 µM (inactive) | 2.38 µM (inactive) | 2.53 µM (inactive) | 1.81 µM (inactive) | 10.8 µM (inactive) | 2.27 µM (inactive) | 1.6 µM (inactive) | 1.65 µM (inactive) | 11.1 µM (inactive) | 5.25 µM (inactive) | 0.468 µM (active) | 1.57 µM (inactive) | 1.87 µM (inactive)
O=c1[nH]c(=O)n([C@H]2C[C@H](O)[C@@H](CO)O2)cc1Br [BROXURIDINE] | > 100 µM (inactive) | > 100 µM (inactive) | > 100 µM (inactive) | > 100 µM (inactive) | > 60.3 µM (inactive) | > 63.5 | > 100 µM (inactive) | > 100 µM (inactive) | > 100 µM (inactive) | > 100 µM (inactive) | > 100 µM (inactive) | > 100 µM (inactive) | > 100 µM (inactive) | 49.9 µM (inactive) | > 100 µM (inactive) | > 100 µM (inactive) | > 100 µM (inactive) | > 100 µM (inactive) | > 100 µM (inactive)
C(/Cc1ccc2c(c1)OCO2)=N\N=C1NCCCCN1 | > 100 µM (inactive) | > 100 µM (inactive) | > 100 µM (inactive) | > 100 µM (inactive) | 28.2 µM (inactive) | > 100 | 55.8 µM (inactive) | 32.8 µM (inactive) | > 100 µM (inactive) | > 100 µM (inactive) | 49.2 µM (inactive) | > 100 µM (inactive) | 86.1 µM (inactive) | 48.4 µM (inactive) | > 100 µM (inactive) | 44.8 µM (inactive) | > 100 µM (inactive) | > 100 µM (inactive) | > 100 µM (inactive)
Cc1cc(O)c(O)c(Oc2cc(C)cc(O)c2O)c1 | 18.2 µM (inactive) | 20.1 µM (inactive) | 20.1 µM (inactive) | 23.3 µM (inactive) | 32 µM (inactive) | 9.14 | 67.6 µM (inactive) | 16.6 µM (inactive) | 48.4 µM (inactive) | 12.7 µM (inactive) | 18.4 µM (inactive) | 13.4 µM (inactive) | 21.9 µM (inactive) | 31.1 µM (inactive) | 17.8 µM (inactive) | 75.7 µM (inactive) | 16.9 µM (inactive) | 17.1 µM (inactive) | 6.07 µM (inactive)
COc1cc(C)cc2c1C(=O)C(NC(C)=O)=CC2=O | > 100 µM (inactive) | > 100 µM (inactive) | > 100 µM (inactive) | > 100 µM (inactive) | > 100 µM (inactive) | > 100 | > 100 µM (inactive) | 99.8 µM (inactive) | 55.1 µM (inactive) | 17.3 µM (inactive) | > 100 µM (inactive) | 24.6 µM (inactive) | > 100 µM (inactive) | > 100 µM (inactive) | > 100 µM (inactive) | 45.7 µM (inactive) | > 100 µM (inactive) | > 100 µM (inactive) | 57.4 µM (inactive)
CC(C)OC(=O)c1ccc(NCc2cc(O)ccc2O)cc1Cl | 2.09 µM (inactive) | 0.327 µM (active) | 2.3 µM (inactive) | 9.08 µM (inactive) | 3.59 µM (inactive) | 0.798 | 18.9 µM (inactive) | 1.51 µM (inactive) | 23.7 µM (inactive) | 2.15 µM (inactive) | 8.22 µM (inactive) | 4.89 µM (inactive) | 2.57 µM (inactive) | 0.202 µM (active) | 13.1 µM (inactive) | 6.73 µM (inactive) | 2.72 µM (inactive) | 6.98 µM (inactive) | 11.4 µM (inactive)
COc1cc2cc(C(=O)N3CC(CCl)c4c3cc(N(C)C)c3ccccc43)[nH]c2c(OC)c1OC (stereo unspecified) | < 0.01 µM (active) | 0.103 µM (active) | 0.012 µM (active) | < 0.01 µM (active) | 0.0101 µM (active) | < 0.0115 | < 0.01 µM (active) | 0.0417 µM (active) | 0.0199 µM (active) | 0.0146 µM (active) | 0.0132 µM (active) | 0.0163 µM (active) | < 0.01 µM (active) | 0.0144 µM (active) | < 0.01 µM (active) | < 0.01 µM (active) | 0.0107 µM (active) | 0.0108 µM (active) | 0.0273 µM (active)
O=C(O)CC(CC(=O)O)C(=O)O [TRICARBALLYLIC ACID] | > 100 µM (inactive) | > 100 µM (inactive) | > 100 µM (inactive) | > 100 µM (inactive) | > 100 µM (inactive) | > 100 | > 100 µM (inactive) | > 100 µM (inactive) | > 100 µM (inactive) | > 100 µM (inactive) | > 100 µM (inactive) | > 100 µM (inactive) | > 100 µM (inactive) | > 100 µM (inactive) | > 100 µM (inactive) | > 100 µM (inactive) | > 100 µM (inactive) | > 100 µM (inactive) | > 100 µM (inactive)
O=C1C(Cl)=C(N2CCC[C@H]2CO)C(=O)c2c(O)ccc(O)c21 | 2.03 µM (inactive) | > 10 µM (inactive) | 1.77 µM (inactive) | 4.38 µM (inactive) | 4.55 µM (inactive) | 1.95 | > 10 µM (inactive) | 1.72 µM (inactive) | 2.26 µM (inactive) | 1.82 µM (inactive) | > 10 µM (inactive) | 2.16 µM (inactive) | 4.24 µM (inactive) | 0.379 µM (active) | 3.74 µM (inactive) | > 10 µM (inactive) | 1.7 µM (inactive) | 2.54 µM (inactive) | 1.35 µM (inactive)
COC(=O)CNC(=O)C(Cc1ccccc1)NC(=O)C(CCSC)NC(=O)C(Cc1ccc(O)cc1)NC(=O)OC(C)(C)C (stereo unspecified) (Boc-YMFG-OMe; configuration not given here) | > 100 µM (inactive) | 35.3 µM (inactive) | 79.3 µM (inactive) | > 100 µM (inactive) | 23.2 µM (inactive) | > 100 | 31.5 µM (inactive) | 26.4 µM (inactive) | > 100 µM (inactive) | > 100 µM (inactive) | > 100 µM (inactive) | > 100 µM (inactive) | > 100 µM (inactive) | 22.3 µM (inactive) | 29.7 µM (inactive) | > 100 µM (inactive) | 40.3 µM (inactive) | > 100 µM (inactive) | 19.1 µM (inactive)
C=C1[C@H](OC(=O)C(C)C)[C@@H](OC(C)=O)[C@@H](OC(C)=O)C(C)(C)[C@@H]2O[C@H]2[C@@H](C)C(=O)[C@@]2(OC(C)=O)C[C@@](C)(OC(C)=O)[C@H](OC(C)=O)[C@@H]2[C@H]1OC(C)=O | > 100 µM (inactive) | > 100 µM (inactive) | > 100 µM (inactive) | > 100 µM (inactive) | > 100 µM (inactive) | > 100 | > 100 µM (inactive) | > 100 µM (inactive) | > 100 µM (inactive) | > 100 µM (inactive) | > 100 µM (inactive) | > 100 µM (inactive) | > 100 µM (inactive) | > 100 µM (inactive) | > 100 µM (inactive) | 0.69 µM (active) | > 100 µM (inactive) | > 100 µM (inactive) | > 100 µM (inactive)
